From patent publication US10112913B2, “Substituted [1,2,4]triazole and imidazole compounds as fungicides” (BASF SE, priority 2014, dated 2018)

System: Fusarium culmorum
Assay: Activity against root rot caused by Fusarium culmorum (Fusacu), microtiter test
Type: cell-based
Details: 31 ppm; Fusarium culmorum spore suspension; 18° C.; 405 nm, 7 days after inoculation

CC(C)CC#Cc1ccc(C(O)(Cn2cncn2)C(C)(C)C)cc1 (stereo not shown) [I.C-2]
growth (relative growth of the pathogen vs active compound-free control = 100%): 0%
